Measured values from patent publication US20050244906A1, “Detection kit, assay plate to be used therein, detection method, evaluation method, polyclonal antibody of frog vitellogenin and process for producing the same” (priority 2002, published 2005).
Read-outs that look alike come from different tables or passages of the source.

What was measured:
[1] = system: hepatocyte in primary culture of an adult male Xenopus laevis; test: VTG synthesis induction in primary hepatocyte culture, VTG in culture liquid by ELISA; type: cell-based; conditions: for estrogenic activity detected, equivalent E2 concentration: primary hepatocyte culture
Protocol: • 10×perfusate (0.14% KCl, 5.5% NaCl, 0.44% pyruvate, 1% glucose, 2.38% HEPES, 5% BSA and 0.2% NaHCO3) • Collagenase perfusate (1×perfusate is controlled to pH 7.2 to 7.5 with phenol red to prepare a solution of 0.1% collagenase. Filtration and sterilization) • Culture liquid (50% L-15, 1 μg/ml insulin, 0.5% glucose and antibiotics) B: Sampling Method of Hepatocyte […] A frog is sterilized in potassium permanganate (5 mg/ml) for 2 hr or more (superficial skin color becomes brown). 2. An anesthetic (20 mg/ml-aminobenzoic acid ethylester) is injected by 0.5 to 1.0 ml to an abdominal cavity. 3. A ventral skin is thoroughly sterilized with a cotton bud wetted with alcohol, followed by operating. 4. A heart is exposed, a syringe is inserted from a cardiac chamber, and a collagenase perfusate is sent in through a hepatic vein by use of a […] pump to perfuse a liver. 5. The liver is taken out and transferred in a beaker, followed by cutting small with a pair of scissors. 6. Transferring into an L-tube together with a small amount of collagenase perfusate. 7. Shaking for 30 to 60 min in an incubator at 24 degrees centigrade. 8. Suspending thoroughly with a pipette, followed by filtering through a nylon mesh. 9. A slight amount of culture liquid is added, followed by centrifuging at 300 rpm for 1 to 2 min. […] A centrifugal supernatant is sucked and removed, followed by centrifuging a culture liquid once more (this operation is repeated twice). 11. […] 12. Seeding every 100 to 300 μl to a microplate (substantially 20,000 pieces/well is better). 13. Cultivating in an incubator at 24 degrees centigrade. […] In the case of the E2 processing, it is known that from the third day on after the processing vitellogenin can be detected in the culture liquid; however, since survived hepatocytes in culture are stable for three weeks, for the test of a substance low in the activity, evaluation is carried out for a longer period. As one of applications of the ELISA KIT, an application to the quantification of VTG concentration in a liquid Xenopus laevis hepatocyte culture was studied as well. […] Of a culture liquid after 6 days from the start of culturing (exchanged on the third day), the quantification of the VTG concentration was carried out with the ELISA KIT. By combining the exposure test to hepatocytes in primary culture and the ELISA, an application to a quantitative screening method of the estrogen activity of various chemicals was studied. […] According to a method similar to (Example 2-2), primary cultured hepatocytes of an adult male Xenopus laevis were prepared, followed by culturing in a culture liquid containing one of the chemicals, and with a culture liquid after 6 days, according to the ELISA, a VTG concentration in the culture liquid was quantified.

[2] = system: adult male Xenopus laevis; test: Exposure in water of adult male Xenopus laevis; vitellogenin quantified by ELISA sandwich method; type: in vivo
Protocol: Adult male Xenopus laevis of same age (two years and half old) were used. Every five thereof were bred in each of a water bath where one in which in 20 L of dechlorinated tap water E2 dissolved in DMSO was added was filled (experimental group) and a water bath where one in which in 20L of dechlorinated tap water the same amount of DMSO that is a solvent was added is filled (comparative group). Exposure concentrations of the E2 were five levels of 0.1 nM, 1 nM, 10 nM, 100 nM and 1000 nM, and, at 3.5 days during a breeding period of 7 days, the breeding water was once exchanged. A water temperature was set at 22 degrees centigrade, bright and dark periods each were set at 12 hr, and during a test period bait was not fed.
At the detection of the vitellogenin, two samples of a blood serum and a liver homogenate were used and compared to study.
A. Sampling of Blood Serum
1. To an abdominal cavity of a frog, 0.5 to 1.0 ml of an anesthetic agent (20 mg/ml aminobenzoic acid ethyl ester) was injected.
2. An operation was performed, and 0.2 ml of blood was sampled from a pulsating heart with a syringe in a tube and placed on ice.
3. A centrifugal process was applied at 15000 rpm, at 4 degrees centigrade for 10 min, followed by sampling a supernatant.
4. Dilution was applied at a factor of 10 with a 20 mM of an EDTA-0.2 percent Tween 20-PBS solution followed by refrigerating and preserving (in the case of long preservation, by freezing and preserving).
The diluted sample was quantified of the vitellogenin according to the ELISA sandwich method.
1. After the sampling of blood, a liver piece was cut to substantially 0.05 to 0.1 g followed by weighing.
2. In a tube where the liver piece put, 1 ml of 20 mM EDTA-0.5% Tween 20-PBS solution was added.
3. The liver was homogenized over ice.
4. A centrifugal process was applied at 15000 rpm, at 4 degrees centigrade for 10 min, followed by sampling a supernatant, further followed by refrigerating and preserving (in the case of long preservation, by freezing and preserving).
The diluted sample was quantified of the vitellogenin by ELISA sandwich.

[3] = system: adult male Xenopus laevis; test: Injection method in adult male Xenopus laevis; vitellogenin quantified by ELISA sandwich method; type: in vivo
Protocol: Adult male Xenopus laevis same in the age as A were used. Five thereof in which an E2 solution was injected by means of injection (experimental group) and another five thereof in which propylene glycol that was a solvent was injected by use of an injection by substantially 200 μl (comparative group) were bred in a glass water bath filled with 20 L of dechlorinated tap water. Exposure concentrations of E2 were five levels of 0.002 μg/g BW, 0.02 μg/g BW, 0.2 μg/g BW, 2 μg/g BW and 20 μg/g BW, and, during a breeding period of 7 days, reinjection was once (at 3.5 days) applied. A water temperature was set at 22 degrees centigrade, bright and dark periods each were set at 12 hr, and during a test period bait was not fed. At the injection, individual organisms were measured of weight and substantially 200 μl of the E2 solution was injected so as to be a set concentration. At the detection of the vitellogenin, two samples of a blood serum and a liver homogenate were used and compared to study. A. Sampling of Blood Serum 1. To an abdominal cavity of a frog, 0.5 to 1.0 ml of an anesthetic agent (20 mg/ml aminobenzoic acid ethyl ester) was injected. 2. An operation was performed, and 0.2 ml of blood was sampled from a pulsating heart with a syringe in a tube and placed on ice. 3. […] The diluted sample was quantified of the vitellogenin according to the ELISA sandwich method.

[4] = system: hepatocyte in primary culture of an adult male Xenopus laevis; type: cell-based
Description: Furthermore, by use of the assay system, the antagonist activity of a target substance could be evaluated.

## C[C@]12CC[C@@H]3c4ccc(O)cc4CC[C@H]3[C@@H]1CC[C@@H]2O [E2, 17β-estradiol]
[1]; cultivated hepatocyte
  concentration at which vitellogenin synthesis reaches the maximum: lower than 1000 nM
[1]; hepatocyte in culture, culture liquid, ELISA
  exposure concentration giving significant concentration-dependent increase in vitellogenin concentration: ≥ 0.6 nM
[1]; ELISA KIT
  estrogenic activity detected, equivalent E2 concentration: ~0.1 nM
[1]; ELISA with biotinylated antibody
  estrogenic activity detected, equivalent E2 concentration: ~0.03 nM
[2]; exposure in water for 7 days, adult male, ELISA KIT
  E2 concentration at which blood plasma VTG / VTG synthesis induction can be detected with the ELISA KIT: ≥ 1 nM
[2]; exposure in water, 7 days, 100 nM
  vitellogenin response at 100 nM: obviously rose high
[2]; exposure in water, 7 days, 1000 nM
  vitellogenin synthesis at 1000 nM: does not increase
[2]; exposure in water, 7 days, adult male
  E2 concentration from which vitellogenin response was observed: ≥ 10 nM
[2]; exposure method in water
  concentration range of abrupt rise of vitellogenin: 10 to 100 nM
[2]; exposure method in water, 100 nM
  production quantity of the vitellogenin: ~13000 μg/ml
[3]
  dose dependence of vitellogenin response: increased dependent on an administered amount
[3]; at 73 nM (assumed uniform diffusion in body)
  production quantity of the vitellogenin: ~14000 μg/ml

## CC(C)(c1ccc(O)cc1)c1ccc(O)cc1 [BPA, bisphenol A]
[4]; co-culture with 5 nM E2, increasing concentration of added chemical
  antagonist activity on VTG synthesis induction due to 5 nM E2: antagonistic activity was exhibited

## nonylphenol [NP]
[4]
  antagonist activity on VTG synthesis induction due to 5 nM E2: antagonistic activity was exhibited
